# How the values were obtained:
# Assay type in all cases: cell-based, human
# [1] = system: G-quadruplex DNA (GQ) structures; experiment: Immunofluorescence of GQ DNA (1H6 antibody); conditions: OVCAR8, OVCAR4 and OVCAR8 RAD51C KO cells; 1 h, 3 h and 24 h post-treatment; 1 μM
# Protocol: To examine the mechanism of activation of ATM/ATR signalling, we investigated the effects of CX-5461 treatment on the formation of GQ structures in OVCAR8, OVCAR8 RAD51C KO and OVCAR4 cells (Fig. 4a, b and Supplementary Fig. 4A–D).
# Fig. 4 CX-5461 induces R-loops stabilization in HR-proficient OVCAR8 cells. a Co-immunofluorescence (Co-IF) of GQ DNA and UBF as a nucleolar marker in OVCAR8 cells and OVCAR8 RAD51C KO cells treated with either vehicle, 1 μM CX-5461 or 10 μM TMPyP4 for 3 h. Representative images of three biologically independent experiments. b Quantitation of GQ DNA immunofluorescence. Signal intensities were analyzed using CellProfiler. […] Representative images of two biologically independent experiments. d Quantitation of R-loops signal intensity was performed using CellProfiler. n = 230 cells per treatment condition were examined over two independent experiments. […] RNA was extracted and 47S rRNA precursor levels were determined using primers specific to the 5’ETS of pre-rRNA. Expression levels were normalized to NONO mRNA and expressed as a fold change relative to vehicle (n = 3 biologically independent experiments), error bars represent mean ± SEM, statistical analysis was performed using a two-sided one-way ANOVA, Tukey’s multiple comparisons test (adjusted p-values are shown). […]
# [2] = system: OVCAR4 cells; experiment: Mini drug screen, proliferation by DAPI staining and Cellomics imaging; conditions: OVCAR4
# Description: Since CX-5461 in combination with BMN-673 lead to increased DNA damage, we hypothesized that combining CX-5461 with PARPi or other DNA repair and DDR inhibitors (DDR therapy) may improve the efficacy of treating HGSOC. We therefore performed a focused/boutique drug screen in the HR-proficient OVCAR4 cells for DNA repair and DDR inhibitors that may cooperate with CX-5461 to enhance growth arrest (Fig. 8a). […] We next examined the cooperation between CX-5461 and BMN-673 or ATRi in inducing cell death in three additional HR-proficient HGSOC cell lines (Supplementary Fig. 3C) and identified robust and significant interactions between BMN-673 and CX-5461 in inducing cell death compared with the ATRi (VE-821) (Fig. 8b). In addition, dose-response curves of BMN-673 in the presence or absence of CX-5461 confirmed CX-5461’s strong interaction with BMN-673 (Fig. 8c).
# Colour-coding denotes the level of proliferation as measured by DAPI staining and imaging using Cellomics (green denotes reduced proliferation). Dose response of single drug treatments were corrected for vehicle control and the combination was corrected for response to 80 nM CX-5461, the average values of n = 5 are presented. The combination of CX-5461 with BMN-673 or ATRi is highlighted by yellow boxes. b Quantitation of SubG1 DNA content by PI staining of cells treated with vehicle, 100 nM CX-5461, 1 μM VE-821, 100 nM BMN-673 or in combination for 7 days (n = 3 biologically independent experiments). Error bars represent mean ± SEM. Flow cytometry gating strategy is shown in Supplementary Fig. 3D. C) Representative BMN-673 dose response curves ± 30 nM CX-5461. Cell proliferation was measured using SRB assays at 5 days post-treatment. Dose response curves for BMN-673 were corrected for DMSO treatment control and the combination was corrected for response to 30 nM CX-5461. Representative of three biological replicates. Error bars represent mean ± SEM of n = 5 technical replicates. d BrdU cell cycle analysis of cells treated with vehicle, 1 μM CX-5461, 100 nM BMN-673 or in combination for 72 h as described in Fig. 3b and Supplementary Fig. 3D. n = 3, mean ± SEM. e In vitro proliferation time-course assessed by cell confluency using IncuCyte ZOOM. Representative of n = 3 biological replicates, mean ± SEM of five technical replicates. Dashed lines denote re-supplement of media with drugs. f CX-5461 and BMN-673 cooperate in inhibiting clonogenic survival. Representative image of n = 6 biologically independent experiments for OVCAR8 and OVCAR8 RAD51C KO cells and n = 3 biological replicates for FT282 cells, mean ± SEM. g Clonogenic assay of OV90 cells. n = 3 technical replicates. Statistical analysis (in b, d and f) was performed using a two-sided one-way ANOVA, Tukey’s multiple comparisons test (adjusted p-values are shown). TEXT PRINTED IN THE PICTURE: (a) CX-5461: GI20 80 nM
# [3] = system: replication forks in OVCAR8 cells; experiment: DNA fibre analysis after 24 h pre-treatment; conditions: OVCAR8, 100 nM, 24 h pre-treatment then CldU/IdU labelling
# Protocol: Error bars represent mean ± SD. d DNA fibre analysis of OVCAR8 cells pre-treated with 100 nM CX-5461, 100 nM BMN-673 or in combination, washed then sequentially labelled with CldU and IdU as indicated in the schematic (top). Fibres were processed and analyzed as described above. n = 150 replication tracks were analysed over two independent experiments. Error bars represent mean ± SD.
# We therefore performed DNA fibre analysis to investigate the effect of CX-5461 on fork stabilization (Fig. 6c and Supplementary Fig. 8A) in OVCAR8 cells. Nascent replication tracks were sequentially labelled with CldU and IdU before treatment with CX-5461 for 3 h. […] We next assessed whether DNA damage induced by CX-5461 treatment affects fork progression by pre-treating cells with CX-5461 for 24 h and then pulse labelled with both analogs (Fig. 6d).
structure (smiles),measurement,setting,value
Cc1cnc(CNC(=O)c2c(=O)c3ccc(N4CCCN(C)CC4)nc3n3c2sc2ccccc23)cn1 [CX-5461],GQ stabilization,[1],did not induce GQ stabilization
same,GI20,[2],80 nM
same,fork progression / fork length,[3],no effect on fork length

# From publication PMC7251123, “CX-5461 activates the DNA damage response and demonstrates therapeutic efficacy in high-grade serous ovarian cancer” (Nature Communications, 2020)
